US20200247849A1, “PEPTIDE AGONISTS AND ANTAGONISTS OF TLR4 ACTIVATION” (PEPTICOM LTD, priority 2016, published 2020)
Non-standard residues stand in square brackets, D forms with d. No end group written: not given here. Chg = N[C@H](C(=O)O)C1CCCCC1; Nphe = O=C(O)CNCc1ccccc1; Ava = NCCCCC(=O)O

What was measured:
[1] = system: TLR4 with MD2 or CD14 co-receptor; assay: Reporter gene (SEAP) PAMP assay in NIH3T3 cells expressing TLR4 with MD2 or CD14 co-receptor; assay type: cell-based; design: key to PAMP assay (NIH3T3 cells) Induction with compound alone / PAMP assay (NIH3T3 cells) Induction with compound + LPS: 0: no effect of the compound alone/no effect of the compound in addition to LPS alone; +: small effect of the compound alone/small effect of the compound in addition to LPS alone; ++: intermediate effect of the comp. alone/intermediate effect of the comp. in add. to LPS alone; +++: strong effect of the compound alone/strong effect of the compound in addition to LPS alone; conditions: for Co-Receptor/s: co-receptor (MD2/CD14) via which the effect occurs; for Co-Receptor/s / Activity: summary of FIGS. 6A-6V; for Activity: type of effect (activation/inhibition) on TLR4
From the text: FIGS. 6A-6V show the dose response inhibitor/activator effects of the designed peptides using a reporter gene assay. The reporter gene assay is composed of NIH3T3 cells transfected with either MD2 or CD14 along with TLR4 and the NF-κB-inducible reporter gene Secreted Alkaline Phosphatase (SEAP) to monitor TLR4 activation (Burger-[…] al. 2010, A new cell-based innate immune receptor assay for the examination of receptor activity, ligand specificity, signaling pathways and the detection of pyrogens. […] The receptors are coupled to for the detection of inhibitory activity, cells were treated with the peptide prior to exposure to LPS and the response to LPS is measured at variable peptide doses (as labeled). The detection of cell activation was performed using the peptide alone, at variable doses, as indicated in the respective graphs. The following presents in more details the experimental procedures. Experimental setup: The cell-based Assay is performed with different NIH3T3 reporter cell lines (NIH 3T3 PRR SEAP-TLR4/CD14 or -TLR4/MD2) and the control cell line NIH 3T3 SEAP. The NIH3T3 SEAP cell line is used in order to determine the background of the alkaline phosphatase expression. It is a cell line stably transfected with only the reporter gene plasmid. For each assay a vial of the master cell bank is revitalized and seeded in a standard cell culture flask (75 cm^2 T-Flask) at day one. Cells are cultured in 20 ml culture media (DMEM supplemented with 10% FCS (heat inactivated), 50 units/ ml penicillin, 0.05 mg/ ml streptomycin and 2 mmol/ L L-glutamine). The cells are cultured at 37° C. in a 5% CO2 humidified atmosphere. At Day 1: For the PAMP Assay cells are seeded in a 96-well plate at a density of 0.3.10^5 cells/well in a final volume of 100 μl culture media (DMEM, 10% FCS (heat inactivated)). To ensure equal culture conditions the 96-well cell culture plates are placed side by side and cultivated in a humidified CO2 incubator (37° C. and 5% CO2). […] After a cultivation period of 24 h the media is removed and replaced with the respective volume of fresh media (DMEM, 0.5% FCS (heat inactivated)).The lyophilized peptides are stored in a freezer at -20° C. upon arrival. For the experiments they are dissolved in DMSO (to the highest possible concentration). Before opening the peptides are allowed to equilibrate to room temperature (in order to reduce the uptake of moisture). For each experiment the stock solution is diluted in DMEM to the appropriate working concentration. […] Sonication was also used to help dissolve the peptides. Immediately after replacing the media, the diluted peptides are applied in a serial dilution to the cells and directly after that the agonist is added to the cells. After adding peptide and […] the final volume in each well of a 96 well plate amounts 100 μl/well. The culture medium containing 0.5% FCS is used as a negative reference item. The induction is performed for 18 h at 37° C. and 5% CO2. At Day 3: To determine the final SEAP value, 50 μl of the supernatant is carefully transferred in a new 96-well plate (Greiner-F-plate) and 50 μl of the substrate (pNPP; p-nitrophenyl phosphate) is added. SEAP catalyzes the hydrolysis of pNPP to the final product para-nitrophenol (yellow) which can be detected by a photometric analysis using an UV-VIS reader at 405 nm. […] The results of FIGS. 6A-6V with respect to peptide activity are summarized in Table 1 above with respect to the type of effect of the respective peptide (activation/inhibition) and with respect to the corresponding co-receptor (MD2/CD14). Data concerning SEQ ID No. 22 with respect to co-receptor CD14 is in preparation.

[2] = system: whole human blood; assay: IL-1β ELISA after 24-hour incubation with whole human blood; assay type: cell-based; design: key: 0: no effect of the compound alone/no effect of the compound in addition to LPS alone; +: small effect of the compound alone/small effect of the compound in addition to LPS alone; ++: intermediate effect of the comp. alone/intermediate effect of the comp. in add. to LPS alone; +++: strong effect of the compound alone/strong effect of the compound in addition to LPS alone; conditions: for IL-1β ELISA after blood activation Induction with compound + LPS: LPS 100 pg/ml
Method: One attribute of TLR-4 activation is the release of the pro-inflammatory cytokine Interleukin-1β (IL1β). Several of our discovered peptides were tested for IL1β induction by ELISA following a 24-hour incubation with whole human blood. IL1β induction was measured with increasing dosage of the peptides alone, or with a fixed dosage of LPS (100 pg/ml).

| Substance | Co-Receptor/s [1] | PAMP assay (NIH3T3 cells) Induction with compound + LPS [1] | PAMP assay (NIH3T3 cells) Induction with compound alone [1] | Activity [1] | IL-1β ELISA after blood activation Induction with compound + LPS [2] | IL-1β ELISA after blood activation Induction with compound alone [2] |
| --- | --- | --- | --- | --- | --- | --- |
| 1(N′) Ava-OH-2Leu-3Tyr-4Met-5Ser-6Leu-7Lys-8Trp-9Met (C′) ([Ava]LYMSLKWM; also: Ava-OH) [SEQ ID No. 4 (M1)] | MD2/CD14 | ++ | ++ | Activator | +++ | + |
| (N′) 1(S)Glu-2(S)Trp-3Gly-4(S)Trp-5(S)Arg-6(S)Met-7(R,S)Ile-8Bzl(Gly) (C′) (EWGWRMI[Nphe]; also: Ile7 (R,S)) [SEQ ID No. 2 (M1)] | MD2/CD14 | – | – | Activator | – | – |
| (N′) Chg-2Leu-3Tyr-4Met-5Ser-6Leu-7Lys-8Trp-9Met (C′) ([Chg]LYMSLKWM) [SEQ ID No. 4 (M2)] | MD2/CD14 | ++ | ++ | Activator | +++ | + |
| EWGWRMII (Activator) [SEQ ID No. 2] | MD2/CD14 | – | – | Activator | – | – |
| ILYKSLKWM (Activator) [SEQ ID No. 5] | MD2/CD14 | – | – | Activator | – | – |
| ILYMSLKWM (Activator) [SEQ ID No. 4] | MD2/CD14 | +++ | + | Activator | +++ | 0 |
| KKLMLII (at the C-terminus CH3 replace COOH) (KKLMLII-CH3) [SEQ ID No. 12] | MD2/CD14 | – | – | Inhibitor | – | – |
| MIPYGMRMM (Inhibitor) [SEQ ID No. 10] | MD2 | – | – | Inhibitor | – | – |
| PLWMMIKSMGSMMEMKK (Activator) [SEQ ID No. 3] | MD2 | – | – | Activator | – | – |
| RYETMSIMIKSGGKG (RYETMSIMIKSGGKY; Activator) [SEQ ID No. 1] | MD2/CD14 | – | – | Activator | – | – |
| RYETMSIMIKSGGKG-(methyl group replacing C-terminus) [SEQ ID No. 1 (M3)] | MD2/CD14 | + | + | Activator | 0 | 0 |
| RYETMSIMIKSGGKY (not fully specified) [SEQ ID No. 1 (M1)] | MD2/CD14 | + | + | Activator | +++ | ++ |
| RYETMSIMIKSGGKY-(methyl group replacing C-terminus) (RYETMSIMIKSGGKY-CH3) [SEQ ID No. 1 (M2)] | MD2/CD14 | + | + | Activator | 0 | 0 |
| c[IGFMMMKKEF] (cyclic; Activator, cyclic) [SEQ ID No. 8] | MD2/CD14 | – | – | Activator | – | – |
| c[IWSRSW] (cyclic; Inhibitor, cyclic) [SEQ ID No. 15] | MD2 | – | – | Inhibitor | – | – |
| c[MLSFRM] (cyclic; Activator, cyclic) [SEQ ID No. 6] | MD2/CD14 | ++ | ++ | Activator | +++ | + |
| c[SIWDTMW] (cyclic; Inhibitor, cyclic) [SEQ ID No. 14] | MD2 | – | – | Inhibitor | – | – |
| c[SWEFLW] (cyclic; Inhibitor, cyclic) [SEQ ID No. 13] | MD2/CD14 | – | – | Inhibitor | – | – |
| c[geldkftm] (all D-amino acids) (cyclo(G[dE][dL][dD][dK][dF][dT][dM]); SMILES CSCC[C@H]1NC(=O)[C@@H]([C@H](C)O)NC(=O)[C@@H](Cc2ccccc2)NC(=O)[C@@H](CCCCN)NC(=O)[C@@H](CC(=O)O)NC(=O)[C@@H](CC(C)C)NC(=O)[C@@H](CCC(=O)O)NC(=O)CNC1=O) [SEQ ID No. 21] | MD2/CD14 | – | – | Activator | – | – |
| c[gfwseeeksl] (all D-amino acids) (cyclo(G[dF][dW][dS][dE][dE][dE][dK][dS][dL]); SMILES CC(C)C[C@H]1NC(=O)[C@@H](CO)NC(=O)[C@@H](CCCCN)NC(=O)[C@@H](CCC(=O)O)NC(=O)[C@@H](CCC(=O)O)NC(=O)[C@@H](CCC(=O)O)NC(=O)[C@@H](CO)NC(=O)[C@@H](Cc2c[nH]c3ccccc23)NC(=O)[C@@H](Cc2ccccc2)NC(=O)CNC1=O) [SEQ ID No. 22] | MD2/CD14 | – | – | Activator | – | – |
| c[gwlwrsl] (all D-amino acids) (cyclo(G[dW][dL][dW][dR][dS][dL]); SMILES CC(C)C[C@H]1NC(=O)[C@@H](CO)NC(=O)[C@@H](CCCNC(=N)N)NC(=O)[C@@H](Cc2c[nH]c3ccccc23)NC(=O)[C@@H](CC(C)C)NC(=O)[C@@H](Cc2c[nH]c3ccccc23)NC(=O)CNC1=O) [SEQ ID No. 19] | MD2/CD14 | – | – | Activator | – | – |
| c[gwwwral] (all D-amino acids) (cyclo(G[dW][dW][dW][dR][dA][dL]); SMILES CC(C)C[C@H]1NC(=O)[C@@H](C)NC(=O)[C@@H](CCCNC(=N)N)NC(=O)[C@@H](Cc2c[nH]c3ccccc23)NC(=O)[C@@H](Cc2c[nH]c3ccccc23)NC(=O)[C@@H](Cc2c[nH]c3ccccc23)NC(=O)CNC1=O) [SEQ ID No. 20] | MD2/CD14 | – | – | Inhibitor | – | – |
| rmmmw (all D-amino acids, CH3 group replaces C-term) ([dR][dM][dM][dM][dW]-CH3) [SEQ ID No. 16] | MD2/CD14 | – | – | Activator | – | – |
| tiymmmtmkg (all D-amino acids, both isoleucine chiral centers in D-enantiomer) [SEQ ID No. 18] | CD14 | – | – | Activator | – | – |
| wwikd (all D-amino acids, both isoleucine chiral centers in D-enantiomer) [SEQ ID No. 17] | MD2/CD14 | – | – | Activator | – | – |
